In patent publication US20170209574A1, “COMBINATION THERAPIES” (Novartis AG, priority 2014, published 2017):

Tests used:
[1] = system: EGFR mutant (L858R, ex19del and T790M) cancer models; details: cited from earlier work
PD-L1 (CD274) [2] = assay: Flow cytometry of PD-L1 surface expression in EBC-1 cells treated with INC280; type: cell-based, human; details: EBC-1 cells (NSCLC with cMET amplification), in vitro; INC280 10, 100, 1000 nM for 24, 48, 72 hours; FIG. 1
Description: PD-L1 (CD274) expression was analyzed in cancer cell lines treated with INC280. Cells were obtained from ATCC and cultured in vitro following ATCC directions. The cell lines used were previously characterized by the Cancer Cell Line Encyclopedia Project (www.broadinstitute.org/ccle/home).
Cells plated in six-well culture plates were treated with the INC280 at different concentrations (10 nM, 100 nM, and 1000 nM) for 24, 48 and 72 hours. Equal amount of vehicle (DMSO) was used as a control. Cells were washed with PBS and then harvested using a cell scraper.
For each reaction, 0.5-1×10^6 cells were stained with 200 μL of anti-human monoclonal PD-L1-PE antibody, clone M1H1 (BD) for 30-60 minutes at 4° C. Cells were washed twice and data was acquired using a Canto II with FACSDiva software (BD Bioscience). Data analysis was performed using FlowJo software (Tree Star). Mean fluorescence intensity (MFI) was determined by gating on single cells. Unstained cells were used as a gating control.

PD-L1 (CD274) [3] = assay: TaqMan RT PCR of PD-L1 mRNA in Hs.746.T tumor xenograft; type: in vivo, human; details: Hs.746.T tumor (gastric cancer cell with cMET amplification & mutation) xenograft; FIG. 2
Description: (§1) TaqMan RT PCR assays were developed to detect changes of expression levels of PD-L1 (CD274) in cell lines and xenograft tumors. mRNA was isolated from frozen cell pellets or tumor fragments using the Qiagen RNeasy Mini kit. Isolated RNA was frozen at −80° C. RNA quality was checked and RNA was quantified using a 2100 Agilent Bioanalyzer following the protocol for the Agilent RNA 6000 Nano Kit. cDNA was prepared using a High Capacity RNA- to cDNA Kit (Applied Biosystems).
(§2) Real-time PCR reactions were carried out in 20 μl total volume, including 10 μl of Universal PCR master mix (Applied Biosystems), 1 μl of human PD-L1 (CD274) probe/primer set (Applied Biosystems), and 8 μl of cDNA. Each sample was run in triplicate. The amount of cDNA produced from 25-50 ng of RNA in the reverse transcription reaction was used in each PCR reaction. Due to difference in mRNA levels between PD-L1 and GAPDH, the two real-time PCR reactions were done in separate tubes using same amount of cDNA. The real-time PCR reaction was run on the C1000 Thermal Cycle (BioRad) with the cycle program as follows: a 10 minute incubation at 95° C. followed by 40 cycles of 95° C. for 15 seconds and 60° C. for 1 minute. After the reaction was complete, the PD-L1 average Ct was normalized relative to each Ct value from the GAPDH reference reaction. Each normalized logarithmic value was then converted into a linear value.

PD-L1 (CD274) [4] = assay: TaqMan RT PCR of PD-L1 mRNA in UKE-1 tumor xenograft model; type: in vivo, human; details: tumor xenograft model bearing UKE-1 (MPN line with JAK2V617F mutation); FIG. 6
Description: as §1, §2

PBMCs = assay: Cytokine analysis (Luminex) of anti-CD3 stimulated PBMCs; type: cell-based, human; details: suboptimal anti-CD3 0.005 ug/ml, LCL161 1, 50, 100 or 1000 nM, day 5 supernatants
Description: Blood was obtained from normal healthy donors. Peripheral blood mononuclear cells (PBMCs) were isolated by centrifuging blood in CPT™ tubes for 18 minutes at 1800×g. Cells were washed twice with cold PBS, enumerated and then stimulated in 96-well round bottomed tissue culture plates (500,000 cells per well) for 5 days at 37° C., 5% CO2. Cells were either left untreated (DMSO control) or treated with different concentrations of LCL161 (1, 50, 100, or 1000 nM). For the cytokine analyses, cells were stimulated with a suboptimal anti-CD3 stimulus (0.005 ug/ml of soluble clone UCHT1). At day 5 post stimulation, supernatants were collected and analyzed for cytokines (Luminex).

TIM-3 = assay: CyTOF mass cytometry of PBMCs (immune checkpoint modulation); type: cell-based, human; details: PBMCs +/- 100 ng/mL anti-CD3, 100 nM LCL161, 4 days; monocytes, naive, memory and activated T killer cells, memory T helper cells; FIG. 9
Description: PBMCs were isolated from healthy donors via BD CPT™ vacutainer tubes. 1 million cells/mL were plated in RPMI+10% FBS+/−100 ng/mL of anti-CD3 antibody+/−DMSO or 100 nM LCL161 for 4 days. Cells were harvested, washed, stained with a panel of metal-conjugated antibodies listed below in Table 2 for analysis by CyTOF mass cytometry. Data were visualized by SPADE using Cytobank webware. SPADE and its use are described, e.g., in Peng et al., Nature Biotechnology, 29, 886-891 (2011); Sean et al, Science, 332 (6030): 687-696 (2011).
A Panel of Metal-Conjugated Antibodies for Analysis by CyTOF Mass Cytometry

[5] = system: human CD4+ and CD8+ T cells; assay: CFSE proliferation analysis of anti-CD3 stimulated PBMCs (FACS); type: cell-based; details: 1 ug/ml soluble anti-CD3, increasing concentrations of LCL161, 5 days
Description: For the proliferation analyses, cells were labeled with 5 uM carboxyfluorescein diacetate succinimidyl ester (CFSE) before stimulation, and then treated with 1 ug/ml soluble anti-CD3. Covalently bound CFSE is divided equally between daughter cells, allowing discrimination of successive rounds of cell division and to track proliferating cells (Lyons et al., Curr Protoc Cytom. 2013; Chapter 9: Unit 9.11). PBMCs were stimulated in the presence of increasing concentrations of LCL161 (or DMSO control) for 5 days. At day 5 post stimulation, cells were harvested, stained with anti-CD4, -CD8, -PD-1, or -CD127, followed by FACS analysis. Results for one donor are shown. Similar results were obtained with PBMCs from 4 other donors.

[6] = system: ALK-positive NSCLC patients; assay: Clinical study of LDK378 in ALK-positive NSCLC patients; type: in vivo, human; details: 750 mg; 53.3% of the patients censored
PD-L1 (CD274) [7] = assay: TaqMan RT PCR of PD-L1 mRNA in H3122 cells in vitro; type: cell-based, human; details: H3122 (NSCLC with ALK translocation) in vitro; FIG. 3
Description: as §1, §2

PD-L1 (CD274) [8] = assay: TaqMan RT PCR of PD-L1 mRNA in LOXIMV1 tumor xenograft model; type: in vivo, human; details: tumor xenograft model bearing LOXIMV1 (BRAF mutant melanoma); FIG. 4
Description: as §1, §2

PD-L1 (CD274) [9] = assay: TaqMan RT PCR of PD-L1 mRNA in HEYA8 tumor xenograft model; type: in vivo, human; details: tumor xenograft model bearing HEYA8 (KRAS mutant ovarian cancer); FIG. 5
Description: as §1, §2

Cc1cc(C(=O)Nc2nc3cccc(Cl)c3n2[C@@H]2CCCCN(C(=O)/C=C/CN(C)C)C2)ccn1 [EGF816, (R,E)-N-(7-chloro-1-(1-(4-(dimethylamino)but-2-enoyl)azepan-3-yl)-1H-benzo[d]imidazol-2-yl)-2-methylisonicotinamide]
efficacy in EGFR mutant cancer models ([1]; L858R, ex19del and T790M, in vitro and in vivo): significant efficacy
WT EGFR inhibition ([1]; at clinically relevant efficacious concentrations): no indication of WT EGFR inhibition

CNC(=O)c1ccc(-c2cnc3ncc(Cc4ccc5ncccc5c4)n3n2)cc1F [INC280, 2-fluoro-N-methyl-4-[7-(quinolin-6-ylmethyl)imidazo[1,2-b][1,2,4]triazin-2-yl]benzamide]
surface expression of PD-L1 (flow cytometry) (PD-L1 (CD274) [2]): significant downregulation of surface expression of PD-L1
PD-L1 expression (mRNA) (PD-L1 (CD274) [3]): Inhibition of PD-L1 expression (mRNA)

N#CC[C@H](C1CCCC1)n1cc(-c2ncnc3[nH]ccc23)cn1 [INC424, (3R)-3-cyclopentyl-3-[4-(7H-pyrrolo-[2,3-d]pyrimidin-4-yl)-1H-pyrazol-1-yl]propanenitrile]
PD-L1 mRNA (PD-L1 (CD274) [4]): Downregulation of PD-L1 mRNA

CN[C@@H](C)C(=O)N[C@H](C(=O)N1CCC[C@H]1c1nc(C(=O)c2ccc(F)cc2)cs1)C1CCCCC1 [LCL161, (S)—N—((S)-1-cyclohexyl-2-((S)-2-(4-(4-fluorobenzoyl)thiazol-2-yl)pyrrolidin-1-yl)-2-oxoethyl)-2-(methylamino)propanamide]
IFN-gamma production (PBMCs; FIG. 7A): increases in immune-active cytokine, IFN-gamma
IL-10 production (PBMCs; FIG. 7B): reduction in immune-suppressive cytokine IL-10
TIM-3 expression (TIM-3): increase in TIM-3 expression
proliferation of CD4+ T cells (CFSE dilution) ([5]; FIG. 8A): enhanced proliferation
proliferation of CD8+ T cells (CFSE dilution) ([5]; FIG. 8B): enhanced proliferation

Cc1cc(Nc2ncc(Cl)c(Nc3ccccc3S(=O)(=O)C(C)C)n2)c(OC(C)C)cc1C1CCNCC1 [LDK378, 5-chloro-N2-(2-isopropoxy-5-methyl-4-(piperidin-4-yl)-phenyl)-N4-[2-(propane-2-sulfonyl)-phenyl]-pyrimidine-2,4-diamine]
median progression-free survival (PFS) [6]: 8.21 months
PD-L1 mRNA (PD-L1 (CD274) [7]): Inhibition of PD-L1 mRNA

COC(=O)N[C@@H](C)CNc1nccc(-c2cn(C(C)C)nc2-c2cc(Cl)cc(NS(C)(=O)=O)c2F)n1 [LGX818, methyl (S)-(1-((4-(3-(5-chloro-2-fluoro-3-(methylsulfonamido)phenyl)-1-isopropyl-1H-pyrazol-4-yl)pyrimidin-2-yl)amino)propan-2-yl)carbamate]
PD-L1 mRNA (PD-L1 (CD274) [8]): Downregulation of PD-L1 mRNA

Cn1cnc2c(F)c(Nc3ccc(Br)cc3F)c(C(=O)NOCCO)cc21 [MEK162, 5-((4-bromo-2-fluorophenyl)amino)-4-fluoro-N-(2-hydroxyethoxy)-1-methyl-1H-benzo[d]imidazole-6-carboxamide]
PD-L1 mRNA (PD-L1 (CD274) [9]): Downregulation of PD-L1 mRNA
